Test results as given in patent publication US11180487B2, “Substituted cyanoindoline derivatives as NIK inhibitors” (Janssen Pharmaceutica NV, priority 2016, dated 2021).

Assays:
[1] = test system: JJN-3 (NIK translocated) multiple myeloma cells; experiment: Antiproliferative activity on JJN-3 multiple myeloma cells (CellTiter-Glo, 96 hr), Biological Assay C; format: cell-based, human; details: Homo sapiens, JJN-3, 96 h, JJN-3 (NIK translocated) cells, averaged values, read-out: JJN-3 Proliferation inhibition (IC50 (nM))
How it was run: (§1)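 Growth read-out was CellTiter-Glo luminescence after 96 h compound exposure, given as percent of no-drug control after subtracting a blank of cells read at dosing. Compounds ran as 9-point serial 1:3 dilutions in 0.3% DMSO, duplicate wells, on JJN-3 (15000/well) or KMS12-BM (20000/well) cells in RPMI 1640/10% FCS.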

[2] = test system: P-IKKα levels in L363 (NIK translocated multiple myeloma) cells; experiment: Effect of compounds on P-IKKα levels in L363 cells (Mesoscale sandwich immuno-assay), Biological Assay B; format: cell-based, human; details: Homo sapiens, L-363, 2 h, 2 hr treatment, averaged values, read-out: Inhibition of pIKKα_L-363 (IC50 (nM))
How it was run: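 P-IKKα in lysates quantified by Mesoscale sandwich immunoassay after 2 h compound exposure in 1% DMSO, duplicate wells, 8-point 1:3 series. Human L363 cells had been preincubated 24 h with BAFF (1 μg/ml stock). Blank (10 μM ADS125117) subtracted; IC50 fitted sigmoidally to % inhibition of control.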

[3] = test system: KMS12-BM (NIK WT) multiple myeloma cells; experiment: Antiproliferative activity on KMS12-BM multiple myeloma cells (CellTiter-Glo, 96 hr), Biological Assay C; format: cell-based, human; details: Homo sapiens, KMS-12-BM, 96 h, averaged values, read-out: KMS-12 Proliferation inhibition (IC50 (nM))
How it was run: as §1

[4] = biological target: recombinant human NF-kappaB-inducing kinase (NIK/MAP3K14) (Homo sapiens, UniProt Q99558); experiment: Inhibition of auto-phosphorylation of recombinant human NIK/MAP3K14 activity (AlphaScreen), Biological Assay A; format: biochemical; details: averaged values over all measurements on all batches
How it was run: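 AlphaScreen detection with anti-phospho-IKK Ser176/180 antibody plus Protein A acceptor/glutathione donor beads after 1 h, 25 °C reaction of 0.2 nM GST-tagged kinase, 25 μM ATP and compound. Buffer: 50 mM Tris pH 7.5, MgCl2, EGTA, DTT, vanadate; 1% DMSO. IC50 fitted sigmoidally to % inhibition.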

recombinant human NF-kappaB-inducing kinase (NIK/MAP3K14), sequence (Q99558 whole entry): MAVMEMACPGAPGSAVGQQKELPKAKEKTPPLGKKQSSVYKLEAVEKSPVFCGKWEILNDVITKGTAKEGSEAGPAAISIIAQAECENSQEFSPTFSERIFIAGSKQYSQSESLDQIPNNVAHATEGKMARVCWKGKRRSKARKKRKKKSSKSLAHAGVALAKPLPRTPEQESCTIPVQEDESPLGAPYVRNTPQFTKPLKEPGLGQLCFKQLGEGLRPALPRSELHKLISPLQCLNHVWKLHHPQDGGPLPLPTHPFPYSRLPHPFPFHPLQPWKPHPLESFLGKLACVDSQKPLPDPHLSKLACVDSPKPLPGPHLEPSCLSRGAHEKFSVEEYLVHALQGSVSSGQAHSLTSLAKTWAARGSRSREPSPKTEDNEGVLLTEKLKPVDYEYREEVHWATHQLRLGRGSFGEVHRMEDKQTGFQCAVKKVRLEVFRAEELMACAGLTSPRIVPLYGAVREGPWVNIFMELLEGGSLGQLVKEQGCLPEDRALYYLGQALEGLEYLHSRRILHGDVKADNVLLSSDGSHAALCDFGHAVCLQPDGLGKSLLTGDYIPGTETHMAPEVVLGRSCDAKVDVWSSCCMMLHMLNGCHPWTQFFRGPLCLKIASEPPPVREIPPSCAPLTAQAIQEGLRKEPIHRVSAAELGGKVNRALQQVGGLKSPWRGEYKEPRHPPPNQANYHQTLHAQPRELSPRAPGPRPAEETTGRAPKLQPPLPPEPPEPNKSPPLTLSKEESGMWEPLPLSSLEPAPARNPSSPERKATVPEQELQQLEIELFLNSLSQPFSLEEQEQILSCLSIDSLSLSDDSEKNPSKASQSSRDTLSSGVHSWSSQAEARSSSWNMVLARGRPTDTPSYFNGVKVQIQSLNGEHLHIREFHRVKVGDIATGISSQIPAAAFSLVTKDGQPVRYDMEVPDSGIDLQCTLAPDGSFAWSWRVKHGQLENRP

Row | Compound | IC50 [1] [nM] | IC50 [2] [nM] | IC50 [3] [nM] | IC50 [4] [nM] | melting point [°C]
1 | Cc1ccc(C2CCN(C)CC2)cc1Nc1nccc(-c2cc(C#N)c3c(c2)[C@@](C)(CO)CN3)n1 [Compound 192] | 1180 | 2950 | 537 | 72.4 | 250
2 | Cc1c(CO)cc(C#N)cc1Nc1nccc(-c2cc(C#N)c3c(c2)[C@@](C)(CO)CN3)n1 [Compound 193] | 22 | 1.7 | > 10000 | 1.6 | 188
3 | Cc1c(CN2CC(C)OC(C)C2)cc(C#N)cc1Nc1nccc(-c2cc(C#N)c3c(c2)[C@@](C)(CO)CN3)n1 (stereo partly shown) [Compound 194] | 17 | 1.4 | 479 | 3.6 | 193
4 | Cc1c(CN2CC(F)C2)cc(C#N)cc1Nc1nccc(-c2cc(C#N)c3c(c2)[C@@](C)(CO)CN3)n1 [Compound 195] | 30 | 1.9 | ~3720 | 6.2 | 210
5 | Cc1c(CN2CC(F)(F)C2)cc(C#N)cc1Nc1nccc(-c2cc(C#N)c3c(c2)[C@@](C)(CO)CN3)n1 [Compound 196] | 14 | 1 | > 10000 | 7.8 | 240
6 | Cc1c(CN2CC(C)OC(C)C2)cccc1Nc1nccc(-c2cc(C#N)c3c(c2)[C@@](C)(CO)CN3)n1 (stereo partly shown) [Compound 197] | 33 | 4.8 | ~240 | 6 | 223
7 | [2H]C([2H])(c1cccc(Nc2nccc(-c3cc(C#N)c4c(c3)[C@@](C)(CO)CN4)n2)c1C)N1CC(C)OC(C)C1 (stereo partly shown) [Compound 198] | 63 | 5.6 | ~550 | 4.6 | 222
8 | Cc1c(Nc2nccc(-c3cc(C#N)c4c(c3)[C@@](C)(CO)CN4)n2)cccc1C(=O)N1CC(C)OC(C)C1 (stereo partly shown) [Compound 199] | 76 | 7.4 | > 10000 | 6.9 | 170
9 | COC(=O)c1cc(C#N)cc(Nc2nccc(-c3cc(C#N)c4c(c3)[C@@](C)(CO)CN4)n2)c1C [Compound 200] | 41 | ~0.66 | > 10000 | 1.7 | 260
10 | Cc1c(Nc2nccc(-c3cc(C#N)c4c(c3)[C@@](C)(CO)CN4)n2)cc(C#N)cc1C(=O)N1CCN(C)CC1 [Compound 203] | 14 | 1.8 | ~5890 | 6.6 | 294
11 | [2H]C([2H])([2H])N1CCN(C(=O)c2cc(C#N)cc(Nc3nccc(-c4cc(C#N)c5c(c4)[C@@](C)(CO)CN5)n3)c2C)CC1 [Compound 204] | 14 | 1.5 | ~3980 | 6.2 | 297
12 | [2H]C1([2H])OC([2H])([2H])C([2H])([2H])N(C(=O)c2cccc(Nc3nccc(-c4cc(C#N)c5c(c4)[C@@](C)(CO)CN5)n3)c2C)C1([2H])[2H] [Compound 205] | 162 | 11.2 | > 10000 | 6 | 201
13 | Cc1c(Nc2nccc(-c3cc(C#N)c4c(c3)[C@@](C)(CO)CN4)n2)cccc1C(=O)N1CCN(C2COC2)CC1 [Compound 207] | 66 | 13.2 | ~9550 | 5 | 268
14 | C[C@]1(CO)CNc2c(C#N)cc(-c3ccnc(Nc4cc(CO)c(F)cc4OC4CC4)n3)cc21 [Compound 208] | 389 | 10.7 | > 10000 | 6.5 | 234
15 | C[C@]1(CO)CNc2c(C#N)cc(-c3ccnc(Nc4cc(C#N)c(F)cc4OC4CC4)n3)cc21 [Compound 209] | 132 | 14.8 | > 10000 | 14.5 | 254
16 | Cc1ccc(C#N)cc1Nc1ncnc(-c2cc(C#N)c3c(c2)[C@@](C)(CO)CN3)n1 [Compound 213] | 1070 | 5 | > 10000 | 4.2 | 304
17 | COCCNCc1ccc(C)c(Nc2nccc(-c3cc(C#N)c4c(c3)[C@@](C)(CO)CN4)n2)c1 [Compound 217] | 4270 | 107 | ~7940 | 9.8 | 151
